Values of other authors as cited in patent publication US7777051B2, “Asymmetric benzimidazoles and related compounds as potassium channel modulators” (Icagen, Inc., priority 2003, dated 2010).

System: SK channels
Conditions: not given

Compound	inhibition of SK channels
O=C1N(c2ccccc2)c2ccccc2C1(Cc1ccncc1)Cc1ccncc1 [linopirdine]	ineffective at inhibiting SK channels

Molecular target: T1, recombinant human SK4 (hIK1 or hKCa4) channels (Homo sapiens, UniProt O15554+P0DP23)
T1 construct: host or cells: HEK 293 cells (transfected, membrane patches)
Conditions: applied to the inside of membrane patches, concentrations up to 100 μM; HEK 293

Compound	activation of SK4 channels
Barium	activated SK4 channels in a concentration-dependent manner
cadmium	activated SK4 channels in a concentration-dependent manner
calcium	activated SK4 channels in a concentration-dependent manner
cobalt	did not activate the SK4 channels
iron	did not activate the SK4 channels
lead	activated SK4 channels in a concentration-dependent manner
magnesium	did not activate the SK4 channels
strontium	activated SK4 channels in a concentration-dependent manner
zinc	did not activate the SK4 channels

Molecular target: SK2 subtype channels (Rattus norvegicus, UniProt P70604)
Conditions: patch clamp

Compound	block of SK2 channel currents
CN(C)CCC=C1c2ccccc2CCc2ccccc21 [amitriptyline]	block SK2 channel currents with micromolar affinity
NC(=O)N1c2ccccc2C=Cc2ccccc21 [carbamazepine]	block SK2 channel currents with micromolar affinity
Nc1c2c(nc3ccccc13)CCCC2 [tacrine]	block SK2 channel currents with micromolar affinity
